From ChEMBL document CHEMBL5465560, “Selectivity Literature for EUbOPEN Chemogenomic Library” (2024)

Tests used:
[1] = molecular target: Transcription intermediary factor 1-beta (Homo sapiens) (UniProt Q13263); assay: Selectivity interaction (Bromodomain panel (DSF asssay)) EUB0000270b TRIM28
[2] = molecular target: Mitogen-activated protein kinase 11 (Homo sapiens) (UniProt Q15759); assay: Selectivity interaction (Kinase panel (Invitrogen)) EUB0000639a MAPK11; conditions: at 200 nM
[3] = molecular target: T1, Dual specificity protein kinase TTK (Homo sapiens) (UniProt P33981); assay: Selectivity interaction (KinomeScan (DiscoverX)) EUB0000595a TTK; conditions: at 10 µM
T1 sequence (whole entry): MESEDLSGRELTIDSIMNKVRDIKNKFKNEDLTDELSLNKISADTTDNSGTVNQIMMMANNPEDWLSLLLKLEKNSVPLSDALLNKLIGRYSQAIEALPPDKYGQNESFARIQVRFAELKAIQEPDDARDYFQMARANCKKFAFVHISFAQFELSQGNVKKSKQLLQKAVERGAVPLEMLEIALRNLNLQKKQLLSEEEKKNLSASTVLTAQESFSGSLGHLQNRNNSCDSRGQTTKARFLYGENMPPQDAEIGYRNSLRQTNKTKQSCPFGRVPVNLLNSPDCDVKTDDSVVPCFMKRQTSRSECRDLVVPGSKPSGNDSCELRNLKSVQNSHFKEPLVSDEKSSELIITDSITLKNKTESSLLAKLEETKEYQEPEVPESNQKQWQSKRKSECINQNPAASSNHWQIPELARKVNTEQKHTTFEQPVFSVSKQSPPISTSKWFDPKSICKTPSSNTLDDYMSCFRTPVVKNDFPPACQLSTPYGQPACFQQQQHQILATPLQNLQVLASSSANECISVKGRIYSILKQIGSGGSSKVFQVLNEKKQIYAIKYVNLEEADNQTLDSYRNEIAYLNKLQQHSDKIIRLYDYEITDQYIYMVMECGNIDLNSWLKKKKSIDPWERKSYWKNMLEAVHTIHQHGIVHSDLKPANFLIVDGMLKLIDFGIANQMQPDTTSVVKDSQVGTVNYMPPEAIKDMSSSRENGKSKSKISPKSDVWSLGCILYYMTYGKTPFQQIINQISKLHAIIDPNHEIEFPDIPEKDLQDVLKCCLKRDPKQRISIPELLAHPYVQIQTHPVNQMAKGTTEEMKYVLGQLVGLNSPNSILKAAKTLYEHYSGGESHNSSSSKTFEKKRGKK

[4] = molecular target: Death-associated protein kinase 1 (Homo sapiens, UniProt P53355); assay: Selectivity interaction (KinomeScan (DiscoverX)) EUB0000092b DAPK1; conditions: at 10 µM
Sequence of Death-associated protein kinase 1 (P53355 whole entry, looked up): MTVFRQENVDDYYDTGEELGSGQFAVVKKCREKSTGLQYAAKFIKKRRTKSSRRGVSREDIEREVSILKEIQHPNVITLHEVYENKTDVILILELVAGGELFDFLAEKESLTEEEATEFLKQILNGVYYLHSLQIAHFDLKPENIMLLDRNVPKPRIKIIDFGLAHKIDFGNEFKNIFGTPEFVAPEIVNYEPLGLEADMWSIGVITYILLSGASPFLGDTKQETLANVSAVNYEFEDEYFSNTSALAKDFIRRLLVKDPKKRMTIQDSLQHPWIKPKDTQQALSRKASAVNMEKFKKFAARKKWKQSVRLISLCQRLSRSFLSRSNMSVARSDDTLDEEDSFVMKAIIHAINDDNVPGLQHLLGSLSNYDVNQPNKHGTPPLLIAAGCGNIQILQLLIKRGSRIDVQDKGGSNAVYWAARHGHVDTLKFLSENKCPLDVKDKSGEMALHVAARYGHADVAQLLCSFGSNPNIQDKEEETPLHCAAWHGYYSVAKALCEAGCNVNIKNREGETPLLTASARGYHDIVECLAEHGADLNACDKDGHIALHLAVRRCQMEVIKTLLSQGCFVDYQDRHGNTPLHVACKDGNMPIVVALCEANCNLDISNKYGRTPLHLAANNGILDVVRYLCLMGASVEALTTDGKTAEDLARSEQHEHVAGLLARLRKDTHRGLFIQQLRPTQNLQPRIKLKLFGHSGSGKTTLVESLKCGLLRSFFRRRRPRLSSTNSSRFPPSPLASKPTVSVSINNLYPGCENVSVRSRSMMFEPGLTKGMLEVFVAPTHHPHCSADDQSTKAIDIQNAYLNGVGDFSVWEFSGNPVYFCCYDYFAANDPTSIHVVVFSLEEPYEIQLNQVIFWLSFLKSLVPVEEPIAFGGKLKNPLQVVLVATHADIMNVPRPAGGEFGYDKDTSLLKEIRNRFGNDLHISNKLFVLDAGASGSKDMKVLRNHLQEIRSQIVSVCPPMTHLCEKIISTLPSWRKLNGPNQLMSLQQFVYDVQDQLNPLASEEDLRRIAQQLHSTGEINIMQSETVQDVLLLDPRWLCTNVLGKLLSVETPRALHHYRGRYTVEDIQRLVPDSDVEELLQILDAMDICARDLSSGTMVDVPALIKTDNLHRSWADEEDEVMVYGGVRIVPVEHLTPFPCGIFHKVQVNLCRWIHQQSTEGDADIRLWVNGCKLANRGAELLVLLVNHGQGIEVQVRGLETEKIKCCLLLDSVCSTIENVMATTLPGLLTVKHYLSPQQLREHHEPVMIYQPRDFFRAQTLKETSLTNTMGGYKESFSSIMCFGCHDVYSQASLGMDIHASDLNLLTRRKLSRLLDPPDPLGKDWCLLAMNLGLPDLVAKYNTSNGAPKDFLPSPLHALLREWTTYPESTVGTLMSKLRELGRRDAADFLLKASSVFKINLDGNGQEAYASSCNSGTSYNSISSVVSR

[5] = molecular target: T2, Mitogen-activated protein kinase kinase kinase 2 (Homo sapiens) (UniProt Q9Y2U5); assay: Selectivity interaction (ActivX KiNativ screen (ex vivo kinase selectivity in human PBMCs)) EUB0001619a MAP3K2; format: cell-based; conditions: PBMC, at 1 µM
T2 sequence (whole entry): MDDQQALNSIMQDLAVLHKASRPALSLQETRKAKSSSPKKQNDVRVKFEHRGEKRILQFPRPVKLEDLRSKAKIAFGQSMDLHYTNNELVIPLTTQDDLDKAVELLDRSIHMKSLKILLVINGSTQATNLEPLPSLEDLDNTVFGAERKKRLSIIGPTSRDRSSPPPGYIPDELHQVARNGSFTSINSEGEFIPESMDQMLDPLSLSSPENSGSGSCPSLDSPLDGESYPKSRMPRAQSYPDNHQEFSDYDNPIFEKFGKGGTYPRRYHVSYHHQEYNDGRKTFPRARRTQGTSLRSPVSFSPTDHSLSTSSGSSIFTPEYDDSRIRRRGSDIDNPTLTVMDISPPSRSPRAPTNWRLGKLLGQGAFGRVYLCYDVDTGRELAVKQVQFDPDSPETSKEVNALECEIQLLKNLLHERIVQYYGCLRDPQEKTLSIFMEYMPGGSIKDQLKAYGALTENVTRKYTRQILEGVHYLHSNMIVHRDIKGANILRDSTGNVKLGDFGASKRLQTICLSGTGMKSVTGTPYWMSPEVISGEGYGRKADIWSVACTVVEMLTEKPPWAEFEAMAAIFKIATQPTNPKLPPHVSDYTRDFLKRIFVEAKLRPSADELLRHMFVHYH

[6] = molecular target: T3, MAP kinase-activated protein kinase 5 (Homo sapiens) (UniProt Q8IW41); assay: Selectivity interaction (KinomeScan (DiscoverX)) EUB0001619a MAPKAPK5; conditions: at 1 µM
T3 sequence (whole entry): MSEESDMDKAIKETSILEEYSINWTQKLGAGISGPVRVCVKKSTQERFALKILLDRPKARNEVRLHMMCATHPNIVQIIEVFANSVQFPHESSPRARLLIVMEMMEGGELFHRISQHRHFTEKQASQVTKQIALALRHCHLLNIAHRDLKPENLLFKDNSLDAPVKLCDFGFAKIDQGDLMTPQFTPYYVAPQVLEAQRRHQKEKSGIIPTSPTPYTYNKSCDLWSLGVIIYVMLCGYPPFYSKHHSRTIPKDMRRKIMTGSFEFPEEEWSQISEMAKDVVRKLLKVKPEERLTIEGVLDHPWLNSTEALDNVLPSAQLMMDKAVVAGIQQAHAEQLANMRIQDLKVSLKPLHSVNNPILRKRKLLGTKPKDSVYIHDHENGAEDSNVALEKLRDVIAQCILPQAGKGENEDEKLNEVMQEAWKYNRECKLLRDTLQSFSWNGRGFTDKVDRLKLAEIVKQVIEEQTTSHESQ

[7] = molecular target: T4, Myosin light chain kinase family member 4 (Homo sapiens) (UniProt Q86YV6); assay: Selectivity interaction (LanthaScreen Eu Kinase Binding Assay) EUB0001632a MYLK4; conditions: at 10 µM
T4 sequence (whole entry): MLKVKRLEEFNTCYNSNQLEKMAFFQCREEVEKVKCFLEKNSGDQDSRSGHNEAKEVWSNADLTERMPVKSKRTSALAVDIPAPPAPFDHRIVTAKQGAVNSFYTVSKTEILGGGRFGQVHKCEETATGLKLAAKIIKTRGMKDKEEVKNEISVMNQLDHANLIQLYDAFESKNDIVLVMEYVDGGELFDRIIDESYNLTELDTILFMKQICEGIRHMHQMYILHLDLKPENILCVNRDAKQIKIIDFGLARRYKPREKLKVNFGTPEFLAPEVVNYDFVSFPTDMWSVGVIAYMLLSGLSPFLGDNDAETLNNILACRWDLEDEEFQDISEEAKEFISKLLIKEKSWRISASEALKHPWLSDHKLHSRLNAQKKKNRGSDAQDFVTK

[8] = molecular target: [Pyruvate dehydrogenase (acetyl-transferring)] kinase isozyme 1, mitochondrial (Homo sapiens, UniProt Q15118); assay: Selectivity interaction (Kinase panel (Z-LYTE Assay)) EUB0001632a PDK1; conditions: at 10 µM

Sequence of Mitogen-activated protein kinase 11 (Homo sapiens) (Q15759 whole entry): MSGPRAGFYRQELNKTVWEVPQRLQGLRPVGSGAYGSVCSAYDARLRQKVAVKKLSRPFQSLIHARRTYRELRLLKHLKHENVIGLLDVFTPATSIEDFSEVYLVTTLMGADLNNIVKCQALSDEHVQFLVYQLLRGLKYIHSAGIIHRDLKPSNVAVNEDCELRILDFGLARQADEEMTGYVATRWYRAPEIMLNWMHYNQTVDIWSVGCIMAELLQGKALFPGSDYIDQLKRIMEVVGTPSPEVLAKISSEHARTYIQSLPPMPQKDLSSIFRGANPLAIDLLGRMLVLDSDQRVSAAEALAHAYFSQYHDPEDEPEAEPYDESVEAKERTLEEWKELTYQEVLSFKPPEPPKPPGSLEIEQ
Sequence of Transcription intermediary factor 1-beta (Homo sapiens) (Q13263 whole entry): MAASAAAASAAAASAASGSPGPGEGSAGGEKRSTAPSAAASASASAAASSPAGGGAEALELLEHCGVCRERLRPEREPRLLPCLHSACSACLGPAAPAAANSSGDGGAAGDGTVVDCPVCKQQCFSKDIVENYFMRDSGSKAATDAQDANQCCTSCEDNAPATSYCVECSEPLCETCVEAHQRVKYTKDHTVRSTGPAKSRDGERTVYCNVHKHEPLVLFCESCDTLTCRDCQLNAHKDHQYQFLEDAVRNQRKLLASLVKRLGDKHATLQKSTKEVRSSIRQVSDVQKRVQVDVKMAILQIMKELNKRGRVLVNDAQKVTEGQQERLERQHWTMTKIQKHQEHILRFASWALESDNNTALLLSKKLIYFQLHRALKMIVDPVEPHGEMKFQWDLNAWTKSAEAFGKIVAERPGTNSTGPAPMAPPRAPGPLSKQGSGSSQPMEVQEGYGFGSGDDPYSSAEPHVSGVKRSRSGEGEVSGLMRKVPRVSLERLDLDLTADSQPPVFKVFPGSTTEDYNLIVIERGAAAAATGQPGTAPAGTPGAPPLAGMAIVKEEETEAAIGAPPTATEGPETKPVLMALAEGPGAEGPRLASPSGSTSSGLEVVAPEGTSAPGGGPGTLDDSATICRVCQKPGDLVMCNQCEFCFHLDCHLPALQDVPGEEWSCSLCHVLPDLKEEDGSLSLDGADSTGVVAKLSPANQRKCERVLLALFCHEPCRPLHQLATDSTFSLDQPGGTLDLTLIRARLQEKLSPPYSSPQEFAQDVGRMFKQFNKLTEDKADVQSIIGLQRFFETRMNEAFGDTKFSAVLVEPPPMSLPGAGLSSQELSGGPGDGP

`Cc1cc(CN)cc(C)c1-c1ncn(C)c1-c1cncn1C` gave a dTM [1] of -1.65 K.

Compound `CC[C@@H]1[C@H](F)C(=O)N[C@@H]1COc1nccc2cc(C(N)=O)c(OC)cc12` [ZIMLOVISERTIB] has a % of inhibition [2] of 5.62%.

`COCC(=O)NC/C=C/c1ccc2ncnc(Nc3ccc(Oc4ccc(C)nc4)c(C)c3)c2c1` [CP-724714] showed a % of control [3] of 80%.

`CCC(=O)N1CCN(c2ccc(-n3c(=O)ccc4cnc5ccc(-c6cnc7ccccc7c6)cc5c43)cc2C(F)(F)F)CC1` gave a % of control [4] of 96%.

With `N#Cc1cccc(-c2c[nH]c3ncnc(N4CCOCC4)c23)c1` the % of inhibition [5] was 13% and the % of control [6] was 100%.

For `Cn1cc(-n2cnc3c(NCc4nc5cc(Cl)c(Cl)cc5[nH]4)nc(N4CCOCC4)nc32)cn1`, the % of inhibition [7] was -25.4% and the % of control [8] was -4.24%.
